The subject of this experiment is BDF1 mice, P388 leukemia ip, median survival T/C. Description: NCI In Vivo Anticancer Drug Screen. Data for tumor model P388 Leukemia (intraperitoneal) in B6D2F1 (BDF1) mice. To be noted: endpoint: median survival time, higher = longer survival. A digest of the protocol: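 Survival ratio, drug arm over vehicle arm, in mice with a transplanted tumour.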
Setting [1] is: dose: 6.25 mg/kg/injection, schedule: Q01DX009 (ip), vehicle: saline with Tween-80.
Where [2] appears, read: dose: 12.5 mg/kg/injection, schedule: Q01DX009 (ip), vehicle: saline with Tween-80.
Setting [3] is: dose: 25.0 mg/kg/injection, schedule: Q01DX009 (ip), vehicle: saline with Tween-80.
[4] abbreviates: dose: 100.0 mg/kg/injection, schedule: Q01DX009 (ip), vehicle: saline with Tween-80.
[5] abbreviates: dose: 100.0 mg/kg/injection, schedule: Q04DX003 (ip), vehicle: saline with Tween-80.
Where [6] appears, read: dose: 200.0 mg/kg/injection, schedule: Q01DX009 (ip), vehicle: saline with Tween-80.
Setting [7] is: dose: 200.0 mg/kg/injection, schedule: Q04DX003 (ip), vehicle: saline with Tween-80.
Where [8] appears, read: dose: 400.0 mg/kg/injection, schedule: Q04DX003 (ip), vehicle: saline with Tween-80.
The mark [9] stands for this setting: dose: 50.0 mg/kg/injection, schedule: Q01DX009 (ip), vehicle: saline with Tween-80.
The mark [10] stands for this setting: dose: 100.0 mg/kg/injection, schedule: Q01DX009 (ip), vehicle: Klucel (hydroxypropylcellulose) (HPC).
Setting [11] is: dose: 200.0 mg/kg/injection, schedule: Q01DX009 (ip), vehicle: Klucel (hydroxypropylcellulose) (HPC).

“And” between values parts separate entries of the source, which are not always exact repeats. Equal entries are not always repeated. Inconclusive results and toxic doses are left out.

On to `CS(=O)(=O)OCCN(CCOS(C)(=O)=O)c1ccc(C=O)cc1`, for which the T/C was 227 % of control (dose: 3.0 mg/kg/injection, schedule: Q04DX003 (ip), vehicle: saline with Tween-80); 210 % of control (dose: 3.13 mg/kg/injection, schedule: Q01DX009 (ip), vehicle: saline with Tween-80); 177 % of control (dose: 5.0 mg/kg/injection, schedule: Q04DX003 (ip), vehicle: saline with Tween-80); 229 % of control under setting [1]; 237 % of control (dose: 8.0 mg/kg/injection, schedule: Q01DX009 (ip), vehicle: saline with Tween-80); 181 % of control (dose: 8.0 mg/kg/injection, schedule: Q04DX003 (ip), vehicle: saline with Tween-80). For the same compound, the T/C by setting is: (dose: 8.25 mg/kg/injection, schedule: Q04DX003 (ip), vehicle: saline with Tween-80) 195 % of control; (dose: 12.0 mg/kg/injection, schedule: Q01DX009 (ip), vehicle: saline with Tween-80) 212 % of control; under setting [2], 231 % of control and 176 % of control; (dose: 12.5 mg/kg/injection, schedule: Q04DX003 (ip), vehicle: saline with Tween-80) 212 % of control; (dose: 18.0 mg/kg/injection, schedule: Q01DX009 (ip), vehicle: saline with Tween-80) 250 % of control; (dose: 18.75 mg/kg/injection, schedule: Q04DX003 (ip), vehicle: saline with Tween-80) 250 % of control. Further, under setting [3], the T/C is 86 % of control.

Consider `Nc1nc(N)c(N=O)c(Nc2ccc(I)cc2)n1`, for which the T/C runs as follows: under setting [4], 108 % of control; under setting [5], 112 % of control; under setting [6], 95 % of control; under setting [7], 108 % of control; under setting [8], 100 % of control.

On to `CC(C)(C)NCCC(O)c1cc2c(Cl)cc(Cl)cc2c2cc(C(F)(F)F)ccc12` (stereo unspecified), for which the T/C under setting [2] is 90 % of control; the T/C under setting [3] was 106 % of control; the T/C under setting [9] is 108 % of control and 114 % of control.

For `CC(=O)N(O)CCCCCNC(=O)CCC(=O)N(O)CCCCCNC(=O)CCC(=O)N(O)CCCCCN`, the T/C under setting [9] is 101 % of control and the T/C under setting [4] is 102 % of control.

As for `Cn1nnc(CC(=O)O)n1`, the T/C (dose: 50.0 mg/kg/injection, schedule: Q01DX009 (ip), vehicle: saline) was 110 % of control; the T/C (dose: 100.0 mg/kg/injection, schedule: Q01DX009 (ip), vehicle: saline) is 101 % of control; the T/C (dose: 200.0 mg/kg/injection, schedule: Q01DX009 (ip), vehicle: saline) was 99 % of control.

Consider `CC(=O)N1C(=O)N(Cl)C(=O)C1(c1ccc(Cl)cc1)c1ccc(Cl)cc1`, for which the T/C is 116 % of control (dose: 60.0 mg/kg/injection, schedule: Q01DX009 (ip), vehicle: saline with Tween-80); 91 % of control under setting [4]; 113 % of control under setting [5]; 113 % of control under setting [6]; 109 % of control under setting [7]; 122 % of control under setting [8].

For `C1CNCC[N-]1.C1CNCC[N-]1.[Cl][Pt+2]([Cl])([Cl])[Cl]`, the T/C (dose: 3.12 mg/kg/injection, schedule: Q04DX003 (ip), vehicle: saline) was 106 % of control and 115 % of control; the T/C (dose: 6.25 mg/kg/injection, schedule: Q01DX009 (ip), vehicle: saline) is 106 % of control; the T/C (dose: 6.25 mg/kg/injection, schedule: Q04DX003 (ip), vehicle: saline) was 100 % of control and 115 % of control; the T/C (dose: 12.5 mg/kg/injection, schedule: Q01DX009 (ip), vehicle: Klucel (hydroxypropylcellulose) (HPC)) is 108 % of control; the T/C (dose: 12.5 mg/kg/injection, schedule: Q04DX003 (ip), vehicle: saline) is 93 % of control and 98 % of control and 100 % of control; the T/C (dose: 25.0 mg/kg/injection, schedule: Q01DX009 (ip), vehicle: Klucel (hydroxypropylcellulose) (HPC)) was 120 % of control. Moreover, the T/C (dose: 25.0 mg/kg/injection, schedule: Q04DX003 (ip), vehicle: saline) is 108 % of control.

For `CC1(C)OC2C(CO)OC(n3cnc4c(N)ncnc43)C2O1` (stereo unspecified), the T/C (dose: 75.0 mg/kg/injection, schedule: Q04DX003 (ip), vehicle: Klucel (hydroxypropylcellulose) (HPC)) is 100 % of control and the T/C (dose: 300.0 mg/kg/injection, schedule: Q04DX003 (ip), vehicle: Klucel (hydroxypropylcellulose) (HPC)) is 100 % of control.

Regarding `CCOC(=O)CNC(=O)CCCCSc1ncnc2nc[nH]c12`, the T/C is, setting by setting: (dose: 20.0 mg/kg/injection, schedule: Q01DX009 (ip), vehicle: Klucel (hydroxypropylcellulose) (HPC)) 97 % of control and 98 % of control; (dose: 40.0 mg/kg/injection, schedule: Q01DX009 (ip), vehicle: Klucel (hydroxypropylcellulose) (HPC)) 91 % of control; (dose: 80.0 mg/kg/injection, schedule: Q01DX009 (ip), vehicle: Klucel (hydroxypropylcellulose) (HPC)) 101 % of control and 111 % of control; (dose: 160.0 mg/kg/injection, schedule: Q01DX009 (ip), vehicle: Klucel (hydroxypropylcellulose) (HPC)) 89 % of control and 100 % of control; (dose: 320.0 mg/kg/injection, schedule: Q01DX009 (ip), vehicle: Klucel (hydroxypropylcellulose) (HPC)) 87 % of control and 89 % of control; (dose: 640.0 mg/kg/injection, schedule: Q01DX009 (ip), vehicle: Klucel (hydroxypropylcellulose) (HPC)) 86 % of control.

Regarding `O=C(N/N=C/c1ccc2c(c1)CCC2)c1ccccc1`, the T/C was 100 % of control (dose: 25.0 mg/kg/injection, schedule: Q04DX003 (ip), vehicle: Klucel (hydroxypropylcellulose) (HPC)); 96 % of control (dose: 50.0 mg/kg/injection, schedule: Q04DX003 (ip), vehicle: Klucel (hydroxypropylcellulose) (HPC)); 94 % of control (dose: 100.0 mg/kg/injection, schedule: Q04DX003 (ip), vehicle: Klucel (hydroxypropylcellulose) (HPC)); 100 % of control (dose: 200.0 mg/kg/injection, schedule: Q04DX003 (ip), vehicle: Klucel (hydroxypropylcellulose) (HPC)).

Take `Cc1nc(Br)c2cnccn12`: the T/C reads like this: (dose: 12.5 mg/kg/injection, schedule: Q01DX009 (ip), vehicle: saline) 118 % of control; (dose: 25.0 mg/kg/injection, schedule: Q01DX009 (ip), vehicle: saline) 109 % of control.

Regarding `S=C1Cc2[nH]c(=S)sc(=S)c2C(=S)N1`, the T/C under setting [1] is 95 % of control, the T/C under setting [2] was 99 % of control and the T/C under setting [3] was 101 % of control.

With `CCCn1cnc2c(SCc3ccccc3Cl)nc(N)nc21`, the T/C is 90 % of control under setting [10]; 100 % of control (dose: 100.0 mg/kg/injection, schedule: Q04DX003 (ip), vehicle: other); 95 % of control under setting [11]; 95 % of control (dose: 200.0 mg/kg/injection, schedule: Q04DX003 (ip), vehicle: other); 104 % of control (dose: 400.0 mg/kg/injection, schedule: Q04DX003 (ip), vehicle: other).

As for `CCOC(=O)NC(CC)CO` (stereo unspecified), the T/C runs as follows: under setting [10], 100 % of control; under setting [11], 95 % of control; (dose: 400.0 mg/kg/injection, schedule: Q01DX009 (ip), vehicle: Klucel (hydroxypropylcellulose) (HPC)) 90 % of control.

With `COc1nc(NC2OCC(O)C(O)C2O)c(C(=O)CCl)c(=O)n1C` (stereo unspecified), the T/C (dose: 100.0 mg/kg/injection, schedule: Q04DX002 (ip), vehicle: saline with Tween-80) was 104 % of control; the T/C (dose: 200.0 mg/kg/injection, schedule: Q04DX002 (ip), vehicle: saline with Tween-80) is 100 % of control; the T/C (dose: 400.0 mg/kg/injection, schedule: Q04DX002 (ip), vehicle: saline with Tween-80) is 100 % of control.

As for `CCN(CC)CCNc1ccc([N+](=O)[O-])c2sc3ccccc3c(=O)c12`, the T/C was 177 % of control (dose: 50.0 mg/kg/injection, schedule: Q01DX009 (ip), vehicle: saline sonified) and 95 % of control (dose: 100.0 mg/kg/injection, schedule: Q01DX009 (ip), vehicle: saline sonified).

As for `CCOC(=O)CNCc1ccc(C)cc1`, the T/C (dose: 50.0 mg/kg/injection, schedule: Q01DX009 (ip), vehicle: water) is 100 % of control; the T/C (dose: 100.0 mg/kg/injection, schedule: Q01DX009 (ip), vehicle: water) is 99 % of control; the T/C (dose: 100.0 mg/kg/injection, schedule: Q04DX003 (ip), vehicle: water) was 91 % of control; the T/C (dose: 200.0 mg/kg/injection, schedule: Q01DX009 (ip), vehicle: water) was 103 % of control; the T/C (dose: 200.0 mg/kg/injection, schedule: Q04DX003 (ip), vehicle: water) is 93 % of control; the T/C (dose: 400.0 mg/kg/injection, schedule: Q01DX009 (ip), vehicle: water) is 108 % of control. The T/C (dose: 400.0 mg/kg/injection, schedule: Q04DX003 (ip), vehicle: water) is 100 % of control.

Values taken from PubChem BioAssay AID328 (DTP/NCI, 2004).
